Tested on: MDA-MB-231 cell line
Test: Cancer cell death effect, MTT assay
Type: cell-based
Details: not irradiated with ultrasound; 2-10 μg/mL doxorubicin, 3 hours treatment, 72 hours culture; FIG. 9
Description: To compare and analyze a cell death effect of the sonosensitive liposome according to the presence/absence of ultrasound irradiation, cancer cell death effects were compared and analyzed according to the presence/absence of ultrasound irradiation using the sonosensitive liposomes of Example 1. An MDA-MB-231 cell line which is a triple-negative breast cancer cell line was used as cancer cells. The MDA-MB-231 cell line was seeded in each well of a 96-well plate at a concentration of 10,000 cells/mL, and then cultured overnight. The cell culture was cultured in a culture broth containing 10% fetal bovine serum (FBS) and 1% antibiotic in Dulbecco's Modified Eagle Medium (DMEM). The culture broth was removed from the wells in which the cells were cultured overnight, and replaced with FBS-free DMEM, and then cultured for an hour. Then, the sonosensitive liposome were added thereto, and cultured for 3 hours. To compare and analyze the cancer cell death according to the ultrasound irradiation, each of the designated wells was treated with a sonosensitive liposome (Sono liposome (US+)) irradiated with ultrasound and a sonosensitive liposome (Sono liposome (US−)) not irradiated with ultrasound. […] The cancer cell death effects were compared and analyzed by adding 200 μL of DMSO to formed formazan in each well and measuring the absorbance at a wavelength of 540 nm using an ELISA reader.

Compound: COc1cccc2c1C(=O)c1c(O)c3c(c(O)c1C2=O)C[C@@](O)(C(=O)CO)C[C@@H]3O[C@H]1C[C@H](N)[C@H](O)[C@H](C)O1 [doxorubicin]
- cell death effect on cancer cells: had a cancer cell death effect
